Consider 9 compounds from ChEMBL document CHEMBL1201862, “PubChem BioAssay data set” (2004).

Test systems include KM12; HCT-15; NCI-H460; SR; SNB-19; TK-10; Malme-3M; ACHN; DMS-114; UACC-62; CAKI-1; OVCAR-3; M14; HT-29; OVCAR-8; MDA-MB-435; Hs-578T; MCF7; T47D; DU-145.
What all share (assay): NCI tumour cell line growth inhibition, 48 h

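Cells were grown in 96-well plates and exposed to each compound for 48 hours at five concentrations; endpoints were interpolated linearly between bracketing concentrations, or set to the highest concentration if not reached. The concentration for 50% growth inhibition is given as GI50.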 Calls of active or inactive are those of the source. Rule as the data show it: active = GI50 up to about 1.1 µM and inactive = higher.

In the case of `COC(=O)/C(=N\N)C(C(=O)C(=O)Nc1nnc(S)[nH]1)c1nc2ccc([N+](=O)[O-])cc2nc1O` (stereo unspecified), the GI50 in the test with KM12 was > 100 µM (inactive); with HCT-15, above 100 µM; with NCI-H460 it was > 100 µM (inactive); with SR, > 100 µM (inactive); in the test with SNB-19, > 100 µM (inactive); in the test on TK-10, > 100 µM (inactive). Moreover, the GI50 with Malme-3M, in the test on ACHN, in the test with DMS-114, with UACC-62, in the test on CAKI-1 and in the test with OVCAR-3 was > 100 µM (inactive) throughout. Besides, the GI50 in the test on M14, in the test on HT-29 and with OVCAR-8 was > 100 µM (inactive) each time.
For the compound `COc1ccccc1OCC(COC(=O)Nc1ccc(C)cc1)OC(=O)Nc1ccc(C)cc1` (stereo unspecified), the GI50 with KM12 is 20.6 µM (inactive); with HCT-15, 15.8 µM; in the test with NCI-H460, 16.7 µM (inactive); in the test on SR, 22.4 µM (inactive); with SNB-19 it was 18.7 µM (inactive); with TK-10 it was 18.4 µM (inactive). Moreover, the GI50 is 17.4 µM (inactive) with Malme-3M; 21.8 µM (inactive) in the test on ACHN; 14.7 µM (inactive) in the test with DMS-114; 15.3 µM (inactive) in the test with UACC-62; 13.1 µM (inactive) with CAKI-1; 17.3 µM (inactive) with OVCAR-3. The figures for the GI50 in the test on M14, in the test on HT-29 and in the test with OVCAR-8 were 19.2 µM (inactive), 19.2 µM (inactive) and 17 µM (inactive), respectively.
`[O-][n+]1c2cc(CBr)c(CBr)cc2[n+]([O-])c2c(O)cccc21`: the GI50 was 1.9 µM (inactive) in the test on KM12; 1.56 µM in the test with HCT-15; 1.91 µM (inactive) in the test on NCI-H460; 0.248 µM (active) in the test on SR; 5.26 µM (inactive) with SNB-19; 6.07 µM (inactive) in the test on TK-10. For the same compound, the GI50 in the test on Malme-3M is 1.91 µM (inactive); with ACHN, 1.81 µM (inactive); in the test on DMS-114 it was 1.69 µM (inactive); in the test on UACC-62 it was 1.79 µM (inactive); with CAKI-1, 2.87 µM (inactive); in the test with OVCAR-3, 2.22 µM (inactive). Besides, the GI50 in the test on M14 was 1.75 µM (inactive); in the test on HT-29 it was 2.01 µM (inactive); in the test on OVCAR-8 it was 1.82 µM (inactive).
As to `O=C1N=C2Sc3ccc4ccccc4c3N2C1=O`, the GI50 in the test with KM12 was 32.7 µM (inactive); in the test with HCT-15 it was 24.2 µM; with NCI-H460 it was 25.1 µM (inactive); in the test with SR, > 100 µM (inactive); in the test with SNB-19 it was 20.4 µM (inactive); in the test with TK-10, 34.4 µM (inactive). For the same compound, the GI50 was 19.1 µM (inactive) in the test with Malme-3M; 28.8 µM (inactive) in the test with ACHN; 39.7 µM (inactive) in the test on DMS-114; 40.5 µM (inactive) with UACC-62; 24.1 µM (inactive) in the test with CAKI-1; 18 µM (inactive) in the test with OVCAR-3. Besides, the figures for the GI50 in the test on M14, in the test on HT-29 and in the test on OVCAR-8 were 26.1 µM (inactive), 32.7 µM (inactive) and 18.4 µM (inactive), respectively.
Take `Cc1ccc(NC(=O)C(=O)C(C(=O)/C=C/c2ccccc2)C2OC(=O)c3ccccc32)c(C)c1` (stereo unspecified): the GI50 is > 100 µM (inactive) in the test on KM12; above 100 µM in the test on HCT-15; > 100 µM (inactive) in the test with NCI-H460; 45.4 µM (inactive) in the test on SR; > 100 µM (inactive) in the test with SNB-19; > 100 µM (inactive) in the test on TK-10. For the same compound, the GI50 with Malme-3M, in the test on ACHN, in the test with DMS-114, with UACC-62, in the test on CAKI-1 and with OVCAR-3 was > 100 µM (inactive) in each case. In addition, the GI50 in the test on M14 and in the test with HT-29 was > 100 µM (inactive) in each case.
As for `O=[N+]([O-])c1ccc(C2CC(c3ccccc3Cl)=Nc3ccccc3S2)cc1` (stereo unspecified), the GI50 in the test with KM12 is 3.08 µM (inactive); in the test with HCT-15 it was 5.35 µM; in the test with NCI-H460 it was 6.85 µM (inactive); in the test with SR, 2.01 µM (inactive); with SNB-19 it was 4.3 µM (inactive); with TK-10, 18.8 µM (inactive). Moreover, the GI50 with Malme-3M is 10.9 µM (inactive); with ACHN it was 7.85 µM (inactive); in the test on DMS-114, 2.19 µM (inactive); in the test on UACC-62 it was 3.99 µM (inactive); with CAKI-1, 4.46 µM (inactive); in the test with OVCAR-3, 8.79 µM (inactive). Besides, the values for the GI50 in the test on M14, in the test with HT-29 and with OVCAR-8 were 12.1 µM (inactive), 4.35 µM (inactive) and 2.2 µM (inactive), respectively.
`CC1/C=C/[C@@]2(C)CCC(C(C)(C)O)C2C(O)C[C@](C)(O)/C=C/C1` (stereo partly specified): the GI50 with KM12 was > 100 µM (inactive); with HCT-15, above 100 µM; in the test on NCI-H460, > 100 µM (inactive); in the test with SR it was 66.5 µM (inactive); in the test with SNB-19, > 100 µM (inactive); with TK-10, > 100 µM (inactive). Moreover, the GI50 in the test on Malme-3M, in the test with ACHN, in the test with DMS-114, in the test on UACC-62, in the test on CAKI-1 and in the test on OVCAR-3 was > 100 µM (inactive) throughout. Also, the GI50 in the test on M14, in the test on HT-29 and in the test on OVCAR-8 was > 100 µM (inactive) in each case.
On to `COC1C(O)C(C)OC(OC2C(Oc3cccc4c(O)c5c(=O)oc6ccc(C)c7c(=O)oc(c34)c5c67)OC(C)C(O)C2O)C1O` (stereo unspecified), for which the GI50 was 1.64 µM (inactive) in the test on KM12; 3.03 µM in the test with HCT-15; 2.07 µM (inactive) in the test with MDA-MB-435; 2.26 µM (inactive) in the test with NCI-H460; 2.38 µM (inactive) in the test on Hs-578T; 0.373 µM (active) in the test on SR. Also, the GI50 in the test with TK-10 was 3.1 µM (inactive); in the test with MCF7, 0.757 µM (active); with Malme-3M it was 1.35 µM (inactive); with ACHN, 4.98 µM (inactive); in the test with DMS-114, 0.918 µM (active); with UACC-62, 1.17 µM (inactive). Moreover, the GI50 in the test on T47D is 0.968 µM (active); with OVCAR-3 it was 2.34 µM (inactive); with M14, 4.13 µM (inactive); with HT-29, 2.63 µM (inactive); in the test on OVCAR-8, 1.15 µM (inactive); with DU-145 it was 6.65 µM (inactive).
As for `COc1cc2c(c(OC)c1OC)-c1ccc(SC)c(=O)cc1[C@@H](NCc1cccc([N+](=O)[O-])c1)CC2`, the GI50 in the test with KM12 was < 0.01 µM (active); in the test with NCI-H460 it was < 0.01 µM (active); with SR it was > 100 µM (inactive); with SNB-19, < 0.01 µM (active); with TK-10 it was < 0.01 µM (active); in the test on Malme-3M it was < 0.01 µM (active). Moreover, the GI50 with ACHN, in the test on DMS-114, in the test on UACC-62, with CAKI-1, in the test on OVCAR-3 and in the test with M14 was < 0.01 µM (active) each time. Moreover, the GI50 in the test on HT-29 and in the test with OVCAR-8 was < 0.01 µM (active) throughout.
